Test systems include NCI-H226; OVCAR-4; NCI/ADR-RES; SW-620; SK-MEL-5; HOP-92; COLO 205; 786-0; NCI-H23; A549; OVCAR-3; UO-31; TK-10; RPMI-8226; EKVX; NCI-H522; ACHN; PC-3; UACC-62; MDA-MB-435.
Assay in all cases: growth of human tumour cells (NCI), 48 h

The values below come from ChEMBL document CHEMBL1201862, “PubChem BioAssay data set” (2004).

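Where inhibition never reached the appropriate level, the endpoint shown equals the highest concentration tested. Otherwise, values were interpolated linearly from a five-concentration, 48-hour dose response in 96-well plates. GI50 marks 50% less growth.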 The source made the active and inactive calls. Cut-off read from the data, not from the text of the source: active = GI50 up to about 1.1 µM and inactive = higher.

Regarding `C/C(=N/NC(=S)N1CCCCCC1)c1ccccc1O`, the GI50 in the assay with NCI-H226 is > 22 µM (inactive); in the assay with OVCAR-4, 6.98 µM (inactive); in the assay on NCI/ADR-RES it was 1.69 µM (inactive); in the assay with SW-620, 4.97 µM (inactive); in the assay on SK-MEL-5 it was 4.05 µM (inactive); with HOP-92, 50.2 µM (inactive). Further, the GI50 in the assay with COLO 205 is 7.98 µM (inactive); with 786-0, 1.89 µM (inactive); in the assay on NCI-H23, 14 µM (inactive); in the assay on A549 it was 6.05 µM (inactive); with OVCAR-3, 1.38 µM (inactive); in the assay with UO-31, 2.62 µM (inactive). Besides, the GI50 in the assay on TK-10 is 3.58 µM (inactive); in the assay on RPMI-8226, 2.48 µM (inactive); in the assay on EKVX, 14.9 µM (inactive); in the assay with NCI-H522 it was 1.49 µM (inactive); in the assay on ACHN, 2.65 µM (inactive); in the assay with PC-3, 6.7 µM (inactive). Moreover, the GI50 in the assay on UACC-62 is 3.05 µM (inactive); with MDA-MB-435 it was 5.82 µM (inactive).

Consider `C=C1C(=O)OC2CC1C(O)C/C(C)=C/CC/C(C)=C/C(O)CC2C` (stereo not given), for which the GI50 was 9.33 µM (inactive) with NCI-H226; 2.45 µM (inactive) in the assay with OVCAR-4; 2 µM (inactive) in the assay on NCI/ADR-RES; 2 µM (inactive) in the assay on SW-620; 4.19 µM (inactive) in the assay on SK-MEL-5; 1.26 µM (inactive) in the assay on HOP-92. The GI50 in the assay on COLO 205 was 1.49 µM (inactive); with 786-0, 1.53 µM (inactive); with NCI-H23 it was 2.44 µM (inactive); in the assay with A549, 12.4 µM (inactive); with OVCAR-3, 2.7 µM (inactive); with UO-31 it was 2.33 µM (inactive). Moreover, the GI50 in the assay with TK-10 is 2.05 µM (inactive); with RPMI-8226, 1.32 µM (inactive); in the assay on EKVX, 1.87 µM (inactive); in the assay on NCI-H522, 0.216 µM (active); in the assay with ACHN it was 1.65 µM (inactive); in the assay with PC-3, 3.11 µM (inactive). Further, the GI50 in the assay with UACC-62 is 2.34 µM (inactive); in the assay with MDA-MB-435 it was 2.85 µM (inactive).

As to `CCC1(C)C=Cc2c(cc(O)c3c(=O)c4ccccc4n(C)c23)O1` (stereo not given), the GI50 in the assay with NCI-H226, with OVCAR-4, in the assay with NCI/ADR-RES, with SW-620, with SK-MEL-5 and in the assay with HOP-92 was > 10 µM (inactive) throughout. In addition, the GI50 in the assay on COLO 205, in the assay on 786-0, with NCI-H23, in the assay on A549, with OVCAR-3 and in the assay on UO-31 was > 10 µM (inactive) throughout. Further, the GI50 with TK-10, in the assay on RPMI-8226, with EKVX, with NCI-H522, in the assay on ACHN and in the assay on PC-3 was > 10 µM (inactive) in each case. In addition, the GI50 with UACC-62 and in the assay on MDA-MB-435 was > 10 µM (inactive) each time.
